The source of these data is US20200345725A1, “Methods and Compositions for Treating Cancer” (Omeros Corporation, priority 2019, published 2020).

Molecules are shown by their SMILES.

One assay has as its system human PBMCs. Nature of the assay: CTLA-4 expression on naive and memory T cells in human PBMC. The class given is cell-based. The following applies: 0.19-6.0 μM; one day post-stimulation; vs vehicle. The method, then:
PBMC cells from a single donor were cultured overnight with additional irradiated antigen-presenting cells (APC) in the presence of various concentrations of GPR174 inhibitory compound 10 (0.019 to 6 μM) or equivalent concentrations of vehicle (DMSO). Anti-CD3 (OKT3) was then added to the cultures for an additional 24 hours. The cells were analyzed by flow cytometry for expression of FOXP3, CTLA-4, CD4, CD3, CD45RA and CD25.

The subject of assay [1] is co-cultured mouse C57BL/6+DBA1 splenocytes. Nature of the assay: Cytokines in C57BL/6 + DBA1 splenocyte co-culture. It counts as cell-based. The following applies: 30 μM; day 6 after mixing. On the procedure: In order to stimulate T cells in mice, splenocytes obtained from two different mouse strains, C57BL/6 and DBA1, were mixed in culture.
The effect of compound 10 on production of cytokines (IFN-γ, IL-5, TNF-α, IL-2, IL-6, IL-4, IL-10, IL-9, IL17A, IL17F, IL-21, IL-22 and IL-13) in mouse splenocyte co-cultures was determined as follows. Splenocytes obtained from two different mouse strains, C57BL/6 and DBA1, were mixed in culture in the presence or absence of 30 μM compound 10. Cytokine production of IFN-γ, IL-5, TNF-α, IL-2, IL-6, IL-4, IL-10, IL-9, IL-17A, IL-17F, IL-21, IL-22 and IL-13 was measured in the co-culture supernatant at day 4 and day 6 after mixing. Cytokine levels were determined by LEGENDplex™ bead-based immunoassays from BioLegend (San Diego, Calif.) according to the manufacturer's instructions.

For the molecule `CC1CCN(c2cc(N3CCN(S(=O)(=O)c4ccccc4)CC3)c([N+](=O)[O-])cc2F)CC1` [compound 10], in the assay with human PBMCs, the “CTLA4 expression in memory Treg cells (CD45RA−FOXP3+)” value was “reduced”, the “CTLA4 expression in memory non-Treg cells (CD45RA−FOXP3−)” value was “reduced”, the “CTLA4 expression in naive Treg cells (CD45RA+FOXP3+)” value is listed as “reduced” and the “CTLA4 expression in naive non-Treg cells (CD45RA+FOXP3−)” value is recorded as “reduced”. Moreover, the “quantities of cytokines produced during splenocyte allogeneic stimulation” value in assay [1] is “strong alteration”.
